According to ChEMBL document CHEMBL3045406, “Enantioselective Relieving Activity of α-Methylbenzylphenylureas toward Bensulfuron-methyl Injury to Rice (Oryza sativa)” (Biosci Biotechnol Biochem, 1999):

Legend:
[1] = system: Oryza sativa; assay: Relieving activity against bensulfuron-methyl induced injury to Oryza sativa (rice) assessed as growth rate at 0.1 uM (Rbv = 46 to 53%); format: functional
[2] = Hydrophobicity, log K of the compound; format: physicochemical; conditions: octanol/water
[3] = system: Oryza sativa; assay: Effect on Oryza sativa (rice) assessed as growth rate at 0.1 uM relative to control; format: organism-based; conditions: in vivo
[4] = system: Oryza sativa; assay: Safener indices, ratio of compound effect of Oryza sativa (rice) growth rate to relieving activity against bensulfuron-methyl induced injury to Oryza sativa growth rate at 10 uM
[5] = system: Oryza sativa; assay: Effect on Oryza sativa (rice) assessed as growth rate at 10 uM relative to control; format: organism-based; conditions: in vivo
[6] = system: Oryza sativa; assay: Relieving activity against bensulfuron-methyl induced injury to Oryza sativa (rice) assessed as growth rate at 10 uM (Rbv = 46 to 53%); format: functional
[7] = system: Oryza sativa; assay: Safener indices, ratio of compound effect of Oryza sativa (rice) growth rate to relieving activity against bensulfuron-methyl induced injury to Oryza sativa growth rate at 1 uM
[8] = system: Oryza sativa; assay: Relieving activity against bensulfuron-methyl induced injury to Oryza sativa (rice) assessed as growth rate at 1 uM (Rbv = 46 to 53%); format: functional
[9] = system: Oryza sativa; assay: Safener indices, ratio of compound effect of Oryza sativa (rice) growth rate to relieving activity against bensulfuron-methyl induced injury to Oryza sativa growth rate at 0.1 uM
[10] = system: Oryza sativa; assay: Effect on Oryza sativa (rice) assessed as growth rate at 1 uM relative to control; format: organism-based; conditions: in vivo

Compound | log K [2] | Activity [3] | Activity [5] | Activity [10] | Activity [1] | Ratio [4] | Activity [6] | Ratio [7] | Activity [8] | Ratio [9]
C[C@H](NC(=O)Nc1ccc(Cl)cc1)c1ccccc1 | 0.439 | 103% | 101% | 101% | 63% | 74 | 88% | 64 | 83% | 21
COc1ccc(NC(=O)N[C@@H](C)c2ccccc2)cc1 | 0.211 | 104% | 95% | 99% | 59% | 81 | 91% | 57 | 81% | 6
C[C@H](NC(=O)Nc1ccccc1F)c1ccccc1 | 0.367 | 98% | 65% | 92% | 73% | 68 | 78% | 65 | 81% | 47
C[C@H](NC(=O)Nc1ccccc1Cl)c1ccccc1 | 0.486 | 99% | 106% | 104% | 75% | 95 | 98% | 80 | 91% | 50
C[C@@H](NC(=O)Nc1cccc(Cl)c1)c1ccccc1 | 0.47 | 97% | 83% | 91% | 50% | 32 | 61% | 19 | 57% | -2
C[C@H](NC(=O)Nc1cccc(Cl)c1)c1ccccc1 | 0.47 | 103% | 103% | 99% | 68% | 82 | 92% | 57 | 79% | 31
C[C@@H](NC(=O)Nc1ccc(Cl)cc1)c1ccccc1 | 0.439 | 96% | 87% | 95% | 50% | 71 | 84% | 61 | 80% | 1
C[C@@H](NC(=O)Nc1ccccc1Br)c1ccccc1 | 0.504 | 99% | 94% | 100% | 53% | 61 | 79% | 20 | 60% | 6
C[C@H](NC(=O)Nc1ccccc1Br)c1ccccc1 | 0.504 | 101% | 102% | 99% | 67% | 97 | 98% | 74 | 87% | 32
C[C@@H](NC(=O)Nc1ccc(Br)cc1)c1ccccc1 | 0.488 | 100% | 87% | 95% | 53% | 76 | 86% | 55 | 77% | 5
C[C@H](NC(=O)Nc1ccc(Br)cc1)c1ccccc1 | 0.488 | 98% | 96% | 97% | 62% | 69 | 84% | 59 | 79% | 24
C[C@@H](NC(=O)Nc1ccccc1I)c1ccccc1 | 0.502 | 100% | 96% | 100% | 61% | 69 | 84% | 34 | 68% | 19
C[C@H](NC(=O)Nc1ccccc1I)c1ccccc1 | 0.502 | 99% | 98% | 100% | 67% | 77 | 89% | 70 | 85% | 32
C[C@@H](NC(=O)Nc1ccccc1F)c1ccccc1 | 0.367 | 97% | 77% | 95% | 47% | 62 | 76% | 32 | 64% | 3
C[C@@H](NC(=O)Nc1ccc(F)cc1)c1ccccc1 | 0.307 | 98% | 92% | 96% | 47% | 52 | 73% | 16 | 55% | -3
C[C@H](NC(=O)Nc1ccc(F)cc1)c1ccccc1 | 0.307 | 96% | 85% | 97% | 51% | 74 | 86% | 47 | 72% | 7
C[C@@H](NC(=O)Nc1ccccc1Cl)c1ccccc1 | 0.486 | 101% | 93% | 103% | 53% | 67 | 83% | 21 | 63% | 3
COc1ccc(NC(=O)N[C@H](C)c2ccccc2)cc1 | 0.211 | 109% | 93% | 101% | 53% | 56 | 78% | 7 | 58% | -11
CC(=O)c1ccccc1NC(=O)N[C@H](C)c1ccccc1 | 0.432 | 96% | 89% | 95% | 46% | 49 | 71% | 10 | 51% | 1
CC(=O)c1ccccc1NC(=O)N[C@@H](C)c1ccccc1 | 0.432 | 100% | 96% | 97% | 53% | 50 | 73% | 35 | 65% | 9

The next lines start with results.

log K [2] | Activity [3] | Activity [5] | Activity [10] | Compound | Activity [1] | Ratio [4] | Activity [6] | Ratio [7] | Activity [8] | Ratio [9]
0.512 | 100% | 99% | 100% | C[C@@H](NC(=O)Nc1cccc(Br)c1)c1ccccc1 | 66% | 85 | 92% | 59 | 80% | 31
0.512 | 100% | 99% | 100% | C[C@H](NC(=O)Nc1cccc(Br)c1)c1ccccc1 | 66% | 85 | 92% | 59 | 80% | 31
0.363 | 99% | 84% | 95% | C[C@@H](NC(=O)Nc1cccc(F)c1)c1ccccc1 | 47% | 44 | 67% | 22 | 57% | -4
0.363 | 97% | 88% | 94% | C[C@H](NC(=O)Nc1cccc(F)c1)c1ccccc1 | 59% | 62 | 79% | 51 | 74% | 21
0.245 | 98% | 73% | 88% | CC(=O)c1cccc(NC(=O)N[C@H](C)c2ccccc2)c1 | 50% | 41 | 62% | 25 | 57% | 5
0.245 | 96% | 94% | 95% | CC(=O)c1cccc(NC(=O)N[C@@H](C)c2ccccc2)c1 | 65% | 80 | 89% | 38 | 83% | 35
0.227 | 96% | 84% | 93% | CC(=O)c1ccc(NC(=O)N[C@H](C)c2ccccc2)cc1 | 49% | 65 | 79% | 27 | 59% | 4
0.227 | 99% | 96% | 99% | CC(=O)c1ccc(NC(=O)N[C@@H](C)c2ccccc2)cc1 | 60% | 74 | 86% | 63 | 81% | 24
